Holding throughout (type): functional
Assay [1] deals with NCI-H358. In words: Cytotoxicity against human NCI-H358 cells harboring KRAS G12C mutant assessed as reduction in cell viability measured after 72 hrs by CellTiter-Glo luciferase-based ATP detection assay. Conditions: NCI-H358, 72 h. In general terms: In ATP-based viability assays light output follows the ATP content of the culture.
Assay [2] has as its system NCI-H1373. Nature of the assay: Cytotoxicity against human NCI-H1373 cells harboring KRAS G12C mutant assessed as reduction in cell viability measured after 72 hrs by CellTiter-Glo luciferase-based ATP detection assay. Conditions: NCI-H1373, 72 h.
The test system of assay [3] is NCI-H23. In words: Cytotoxicity against human NCI-H23 cells harboring KRAS G12C mutant assessed as reduction in cell viability measured after 72 hrs by CellTiter-Glo luciferase-based ATP detection assay. Conditions: NCI-H23, 72 h.
Assay [4] concerns NCI-H1792. In words: Cytotoxicity against human NCI-H1792 cells harboring KRAS G12C mutant assessed as reduction in cell viability measured after 72 hrs by CellTiter-Glo luciferase-based ATP detection assay. Conditions: NCI-H1792, 72 h.
The subject of assay [5] is NCI-H2122. Nature of the assay: Cytotoxicity against human NCI-H2122 cells harboring KRAS G12C mutant assessed as reduction in cell viability measured after 72 hrs by CellTiter-Glo luciferase-based ATP detection assay. Conditions: NCI-H2122, 72 h.
The subject of assay [6] is NCI-H358. In words: Cytotoxicity against human NCI-H358 cells harboring KRASG12C mutant assessed as reduction in cell viability measured after 72 hrs in presence of compound 1 by CellTiter-Glo luciferase-based ATP detection assay. Conditions: NCI-H358, 72 h.
The test system of assay [7] is NCI-H1792. In words: Cytotoxicity against human NCI-H1792 cells harboring KRASG12C mutant assessed as reduction in cell viability measured after 72 hrs in presence of compound 1 by CellTiter-Glo luciferase-based ATP detection assay. Conditions: NCI-H1792, 72 h.
Assay [8] has as its system NCI-H1373. In words: Cytotoxicity against human NCI-H1373 cells harboring KRASG12C mutant assessed as reduction in cell viability measured after 72 hrs in presence of compound 1 by CellTiter-Glo luciferase-based ATP detection assay. Conditions: NCI-H1373, 72 h.
Assay [9] relates to NCI-H2122. Nature of the assay: Cytotoxicity against human NCI-H2122 cells harboring KRASG12C mutant assessed as reduction in cell viability measured after 72 hrs in presence of compound 1 by CellTiter-Glo luciferase-based ATP detection assay. Conditions: NCI-H2122, 72 h.
The test system of assay [10] is NCI-H23. Nature of the assay: Cytotoxicity against human NCI-H23 cells harboring KRASG12C mutant assessed as reduction in cell viability measured after 72 hrs in presence of compound 1 by CellTiter-Glo luciferase-based ATP detection assay. Conditions: NCI-H23, 72 h.

In general, IC50 refers to the point on the concentration scale where inhibition reaches its midpoint. `C[C@H]1CNC(=O)c2cnn3ccc(nc23)N[C@H](C)c2cc(F)ccc2O1` [REPOTRECTINIB]: the IC50 in the assay with NCI-H358 [1] stood at 2500 nM; in the assay on NCI-H1373 [2], 5000 nM; with NCI-H23 [3] it was 4060 nM; in the assay on NCI-H1792 [4] it was 1900 nM; in the assay with NCI-H2122 [5], 1940 nM.
Regarding `C=CC(=O)N1CCN(c2nc(=O)n(-c3c(C)ccnc3C(C)C)c3nc(-c4c(O)cccc4F)c(F)cc23)[C@@H](C)C1` [SOTORASIB], the IC50 is 3 nM with NCI-H358 [6]; 213 nM in the assay with NCI-H358 [1]; 3000 nM in the assay with NCI-H1792 [7]; greater than 10000 nM in the assay on NCI-H1373 [2]; greater than 10000 nM in the assay with NCI-H23 [3]; 356 nM with NCI-H1373 [8]. The values for the half-inhibitory concentration (IC50) in the assay on NCI-H1792 [4], with NCI-H2122 [9] and with NCI-H23 [10] were greater than 10000 nM, 90.5 nM and 1500 nM, respectively.
